Data published in paper PMC12169669, “Regio- and Stereoselective Synthesis of Nitro-fatty Acids as NRF2 Pathway Activators Working under Ambient or Hypoxic Conditions” (Journal of Medicinal Chemistry, 2025).

What was measured:
[1] = system: NRF2; assay: Immunocytochemistry of NRF2 in BMCs; type: cell-based, mouse; details: 1 h, 1% oxygen
Method: BMCs (2 × 10^6 cells in 300 μL of complete medium) were incubated with 10-NO 2 OA or control medium for 1 h in a 1% oxygen incubator. Cells were then washed with PBS, resuspended in fresh PBS, and plated on an 8-well μ-slide (ibidi, Germany). After allowing cells to settle (10 min), PBS was aspirated, and cells were fixed with 4% paraformaldehyde for 10 min. From this step onward, all work was performed under atmospheric conditions. Cells were washed twice, permeabilized with 0.1% Triton X-100, washed again, and blocked with 1% BSA/PBS. Samples were incubated with primary anti-NRF2 antibody (1:100, SAB4501384, Millipore) overnight at 4 °C. After washing, a secondary Alexa Fluor 647 antibody (1:100, A31573, Invitrogen) was added for 1 h at room temperature in the dark. After washes, nuclei were stained with DAPI (0.5 μg/mL, Merck) for 10 min at room temperature in the dark, washed, and mounted on a microscope slide. Images were acquired with an Olympus FV10i (Olympus, Japan) scanning microscope and analyzed using ImageJ v1.52 (NIH).
5 Subcellular localization of NRF2. NO 2 FA derivatives promote nuclear translocation of NRF2 in mouse BMCs. BMCs were cultured under 1% oxygen conditions and treated for 1 h with 2 μM of 10-NO 2 OA, 10-NO 2 LA, or 10-NO 2 SA. […] Data are expressed as mean ± SD from two independent experiments (n = 2). […]

[2] = system: Gclm and Hmox1; design: method as in Khoo et al.; details: compared to other derivatives; ref Khoo et al.; cited from earlier work

Compound: CCCCCCCC/C(=C\CCCCCCCC(=O)O)[N+](=O)[O-] [10-NO2OA, (9E)-10-Nitro-oleic Acid]
- colocalization of NRF2 with the nucleus [1]: increased colocalization
- expression of Gclm and Hmox1 [2]: induced a higher expression
